Entries after “also recorded” stand apart in the source; their conditions may differ.

The subject of series [1] is Dahl salt-sensitive rats. The series can be described thus: Dahl salt-sensitive rat heart failure model, 8% NaCl high-salt diet (Example 1). The following applies: 8% NaCl HS diet. Format: in vivo. From the text: To determine the therapeutic potential of miR-208a inhibition in vivo, we designed an antimiR targeting bases 2 to 17 of the 5′ region of mature miR-208a and containing a combination of LNA and DNA linked by phosphorothioate bonds. The sequence of the antimiR-208a, which is referred to as M-10101, was 5′-[…]-3′ (SEQ ID NO: 12). To test the therapeutic relevance of miR-208a inhibition, we used Dahl salt-sensitive rats that were either fed a low-salt (LS) diet (0.25% NaCl) or a high-salt (HS) diet (8.0% NaCl) starting at 8 weeks of age. Initiation of an HS diet in Dahl salt-sensitive rats results in chronic hypertension, which progresses to a model of congestive heart failure associated primarily with diastolic dysfunction (Rodenbaugh et al. (2007) Am J Physiol Heart Circ Physiol. 293, H1705-H1713). After one week on the HS diet, rats were administered saline, 25 mg/kg antimiR-208a, or 25 mg/kg scrambled control oligo subcutaneously every two weeks. […] As an indication of health, we monitored body weight during the duration of the study.
The LNA-antimiR oligonucleotides were synthesized at miRagen Therapeutics, Inc. as unconjugated and fully phosphorothiolated oligonucleotides perfectly complementary to the 5′ region of the mature miR-208a sequence. The LNA control oligonucleotide consisted of a sequence directed against a C. elegans specific miRNA. […]

The test system of series [2] is plasma miRNAs. The series can be described thus: Real-time PCR of plasma miRNAs, 6% NaCl diet (Example 3). Format: in vivo, rat. The protocol: One week following the initiation of the 6.0% NaCl diet, rats were dosed subcutaneously (sc) with saline or oligonucleotides (M−10101, 5′-CTTTTTGCTCGTCTTA-3′ (SEQ ID NO: 12) or M-10591, 5′-TCCTAGAAAGAGTAGA-3′ (SEQ ID NO:13)) at 25 mg/kg every 2 weeks. Captopril or water were dosed daily by oral gavage. Echocardiography was performed every 2 weeks starting one week post […] dosing. The Captopril dose for rat was selected to match the standard human dose in man.
Quantitative real-time PCR analysis from plasma. RNA from plasma samples was isolated using Trizol LS Reagent (Invitrogen), using the manufacturer's protocol. Prior to RNA isolation, […] of two different synthetic C. elegans miRNA sequences were added to serve as internal controls for normalization of target miRNAs. The C. elegans sequences used were cel-miR-2 ([…], SEQ ID NO:5), and cel-lin-4 ([…]; SEQ ID NO:6) (Dharmacon). The final RNA pellet was re-suspended in a final volume equal to the initial plasma volume and 5 μl was used for subsequent RT-PCR reactions, as described above.
A general note: In qPCR the cycle at which signal appears reflects the starting amount.

For a further series, the system named is miR-208a. Kind of series: Real-time PCR of miR-208a in cardiac tissue, 4% NaCl diet (Example 1). The series is classed as in vivo, rat. The following applies: 4% NaCl HS diet, 2 weeks after last injection, 5 or 25 mg/kg antimiR, control 25 mg/kg. Here is the method: This regulation of miR-499 and miR-208b was confirmed by Northern blot analysis (FIG. 2B).
For in vivo real-time PCR analysis, RNA was extracted from cardiac tissue using Trizol (Invitrogen) after which two μg RNA from each tissue sample was used to generate cDNA using Super Script II reverse transcriptase per manufacturer's specifications (Invitrogen). To detect the level of miR-208 RT-PCR was performed using the Taqman MicroRNA assay (Applied Biosystems, ABI) according the manufacturer's recommendations, using 10-100 ng of total RNA. The expression of a subset of genes was analyzed by quantitative real time PCR using Taqman probes purchased from ABI.

In series [3] the test system is Dahl salt-sensitive rats. Kind of series: Dahl salt-sensitive rat model, 6% NaCl diet: body weight and survival (Example 3). The series is classed as in vivo.
Series [4] concerns plasma miRNAs. The series can be described thus: Real-time PCR of plasma miRNAs, 4% NaCl diet (Example 1). Format: in vivo, rat. From the text:
Detection of miRNAs in plasma during various disease settings is showing increasing diagnostic promise (Cortez M A and Calin G A (2009) Expert Opin Biol Ther. 9, 703-711). To determine whether there is a specific miRNA that correlates with antimiR-208a efficacy, we examined a panel of muscle related miRNAs during HS treatment.
RNA from plasma samples was isolated using Trizol LS Reagent (Invitrogen), using the manufacturer's protocol. Prior to RNA isolation, […] of two different synthetic C. elegans miRNA sequences were added to serve as internal controls for normalization of target miRNAs. The C. elegans sequences used were cel-miR-2 ([…], SEQ ID NO:5), and cel-lin-4 ([…]; SEQ ID NO:6) (Dharmacon). The final RNA pellet was re-suspended in a final volume equal to the initial plasma volume and 5 μl was used for subsequent RT-PCR reactions, as described above.

Take “M-10101: antimiR targeting bases 2 to 17 of mature miR-208a, LNA and DNA linked by phosphorothioate bonds; 5′-CTTTTTGCTCGTCTTA-3′ (SEQ ID NO: 12) (all phosphorothioate, sugars by position and methylation of C not given here; LNA/DNA mixmer; listed as Homo sapiens)”: the Food intake result with Dahl salt-sensitive rats [1] is “comparable ingestion between all HS-fed groups”. Also, the “Survival (Kaplan-Meier)” value with Dahl salt-sensitive rats [1] (25 mg/kg sc every 2 weeks starting 1 week after HS diet, listed as antimiR-208a, 25 mg/kg) was “significantly alleviated these symptoms; also recorded: significantly improved”. For the same substance, in the series with plasma miRNAs [2], the “Plasma miR-19b” value is listed as “significantly increased”; the “Plasma miR-223” value was “more significant decrease”; the “Plasma miR-423-5p, miR-106b, miR-16, miR-92a, miR-378, miR-210, miR-378*, miR-20b and miR-93” value is “decreased”. For the same substance, in the series with miR-208a (listed as Anti-miR-208a), the “miR-208a level in left and right ventricle” value is given as “dose-dependent inhibition”. The “miR-208a level in left and right ventricle” value in the series with miR-208a (listed as anti-miR-208a) is recorded as “dose-dependent reduction of miR-208a”. The “Survival (Kaplan-Meier)” value with Dahl salt-sensitive rats [3] (M-10101 25 mg/kg sc every 2 weeks, water po, 25 mg/kg) is listed as “significantly improved survival; also recorded: No mortality was observed”. Moreover, the Body weight entry in the series on Dahl salt-sensitive rats [3] (oligonucleotide 25 mg/kg sc every 2 weeks) is on record as “partially prevented the body weight loss”. For the same substance, the “Plasma miR-499” value in the series on plasma miRNAs [4] (8 weeks after start of 4% HS diet, 7 weeks after onset of antimiR treatment, listed as antimiR-208a) was “significantly reduced; also recorded: significantly lowers”. The “Plasma miR-423-5p” value in the series with plasma miRNAs [4] (8 weeks after start of 4% HS diet, listed as antimiR-208a) is recorded as “reduced; also recorded: decrease”. Moreover, in the series with plasma miRNAs [4] (Dahl hypertensive rats), the “Plasma miR-1” value is listed as “no response” and the “Plasma miR-208a” value is “no response”.
